Reference: PMC11374660, “The novel family of Warbicin® compounds inhibits glucose uptake both in yeast and human cells and restrains cancer cell proliferation” (Frontiers in Oncology, 2024)

Legend:
[1] = test system: HXK2 hxk1Δ glk1Δ yeast cells; assay: Sugar uptake in HXK2 hxk1Δ glk1Δ yeast cells; type: cell-based, S. cerevisiae
Procedure: Zero-trans uptake of radioactively labeled [U-^14C]glucose, [U-^14C]fructose or [U-^14C]galactose by S. cerevisiae cells was determined in accordance with previous studies ([45], [75]). Cells were grown on different carbon sources depending on the experiment. For measuring glucose uptake activity in the tps1Δ and tps1Δ hxtΔ strains, cells were grown on YP medium containing 325 mM glycerol (measurement of 10 s). Typically, for compound characterization and kinetic studies in wild type and tps1Δ strains, cells were (pre)grown on Complete Synthetic medium supplemented with 110 mM galactose (measurement of 10 s). In the experiments on the influence of hexokinase activity on the sugar uptake rate, the measurement duration was shortened to 5 s and cells were always grown on YP medium containing 325 mM glycerol and 430 mM ethanol. After harvesting, cells were washed twice with ice-cold 25 mM MES-buffer pH 6, and resuspended in their respective medium without sugar to a final concentration of 45 mg (wet weight)/mL. The amount of added tracer was estimated to give a response close to at least 1000 counts per min in order to adequately counter background noise. […] The loaded filter was transferred to a scintillation vial containing 3 mL liquid scintillation cocktail (Ultima-Flo M, Perkin Elmer) and counted using the Hidex 300 SL. […]

hexokinase = assay: Hexokinase activity in extracts of wild type yeast cells; type: biochemical, S. cerevisiae; details: 50 µM; variable glucose / 5 mM ATP and variable ATP / 5 mM glucose
Procedure: In vitro hexokinase activity of yeast cells was determined as described previously ([44], [76]). As such, the yeast cells were first grown to exponential phase on Complete Synthetic medium supplemented with 110 mM galactose. The cells were harvested and washed with ice-cold 25 mM MES buffer pH 6. Subsequently, cells were resuspended in lysis buffer (50 mM HEPES pH 7, 150 mM NaCl, 2.5 mM MgCl2, 5% glycerol and 1% Triton X-100) containing protease inhibitor after which the yeast cells were mechanically lysed. After protein level determination, total protein concentration was diluted to 0.1 mg/mL in reaction buffer (50 mM HEPES pH 7, 150 mM NaCl, 2.5 mM MgCl2, 5% glycerol). For measuring activity, reaction buffer was supplemented with 1.07 mM NADP^+ and 10 U/mL Glu6P dehydrogenase (Sigma-Aldrich G7877). After temperature equilibration of the plate at 30°C, the reaction was started by adding both ATP and glucose to the reaction buffer. OD340 was measured using the Synergy H1 Hybrid reader and hexokinase activity was determined based on the linear increase of absorbance in the first 10-20 s.

human GLUT1^V69M = target: T1, human GLUT1^V69M (Homo sapiens, UniProt P11166, V69M); assay: Glucose uptake by GLUT1^V69M expressed in yeast RE700A hxt^0 gal2Δ; type: cell-based; details: 25 µM, hxt^0 gal2Δ strain
T1 construct: expressed in transfected cells; host or cells: S. cerevisiae RE700A hxt0 gal2Δ transformed with pFL38Kan-GLUT1^V69M (TEF1 promoter, low-copy)
T1 sequence (P11166 1-492 V69M): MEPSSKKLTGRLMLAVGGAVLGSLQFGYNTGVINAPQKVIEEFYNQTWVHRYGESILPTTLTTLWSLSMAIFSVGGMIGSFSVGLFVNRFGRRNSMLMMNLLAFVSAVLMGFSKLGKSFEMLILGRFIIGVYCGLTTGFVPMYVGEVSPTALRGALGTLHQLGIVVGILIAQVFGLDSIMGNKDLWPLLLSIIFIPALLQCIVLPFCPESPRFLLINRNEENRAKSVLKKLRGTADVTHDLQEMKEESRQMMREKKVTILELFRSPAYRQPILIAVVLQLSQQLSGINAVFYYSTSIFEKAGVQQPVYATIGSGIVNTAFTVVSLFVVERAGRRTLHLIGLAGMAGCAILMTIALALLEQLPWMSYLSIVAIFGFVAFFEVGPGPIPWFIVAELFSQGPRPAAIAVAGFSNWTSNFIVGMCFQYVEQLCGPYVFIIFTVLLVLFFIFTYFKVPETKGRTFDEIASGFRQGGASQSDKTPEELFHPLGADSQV
Procedure: Cells of S. cerevisiae were either grown in minimal or rich medium. For minimal medium, cells were grown in Complete Synthetic medium (MP biomedicals) containing 0.5% (w/v) ammonium sulphate (Sigma-Aldrich), 0.17% (w/v) yeast nitrogen base without amino acids and without ammonium sulphate, supplemented with 100 mg/L adenine. In the case of auxotrophic selection, the appropriate composition of essential amino acids (MP Biomedicals) was chosen. For liquid medium, pH was adjusted to 5.5 and for solid medium (2% agar) to 6.5 with KOH. For rich medium, cells were grown on YP medium (1% w/v yeast extract, 2% w/v bacteriological peptone), supplemented with 100 mg/L adenine. Cells of the EBY.VW4000 hxt^0 strain expressing a single HXT carrier or GLUT isoform were (pre)grown in YP medium with 58 mM maltose (which is taken up by its own dedicated maltose transporter). S. cerevisiae cells were always grown at 30°C. Liquid cultures were shaken at 200 rpm.
Zero-trans uptake of radioactively labeled [U-^14C]glucose, [U-^14C]fructose or [U-^14C]galactose by S. cerevisiae cells was determined in accordance with previous studies ([45], [75]). Cells were grown on different carbon sources depending on the experiment. […] The loaded filter was transferred to a scintillation vial containing 3 mL liquid scintillation cocktail (Ultima-Flo M, Perkin Elmer) and counted using the Hidex 300 SL. […]

## Cc1nc(Sc2nnc3n2CCCCC3)c2c(-c3cccs3)csc2n1 [WBC-A]
[1]; Saccharomyces cerevisiae, read-out: inhibition of fructose transport
  inhibition at 50 µM: > 75%
[1]; strain expressing Hxk2
  1 mM glucose uptake rate: strong decrease in glucose uptake rate
hexokinase
  effect on in vitro hexokinase activity: No significant effect
Human GLUT1^V69M
  inhibition of 2.5 mM glucose uptake by GLUT1^V69M: inhibited glucose uptake both by Hxt7 and GLUT1^V69M
